Assay [1] has as its system hairpin oligo. Briefly: Kinetic assay using hairpin oligos (Example 7). The format is biochemical. How it is done:
A kinetic assay using hairpin oligos was also performed to determine the rate of incorporate of an unnatural nucleotide and a natural nucleotide following the unnatural nucleotide. […] Incorporation of a T or U analog unquenched a fluorescein in the hairpin oligo. Following incorporation of the T or U analog, a mixture of C and A was added, which further unquenched the dye.

Assay [2] concerns the target T1, Bst DNA polymerase (Geobacillus stearothermophilus, UniProt P52026).
T1 sequence (P52026 1-876): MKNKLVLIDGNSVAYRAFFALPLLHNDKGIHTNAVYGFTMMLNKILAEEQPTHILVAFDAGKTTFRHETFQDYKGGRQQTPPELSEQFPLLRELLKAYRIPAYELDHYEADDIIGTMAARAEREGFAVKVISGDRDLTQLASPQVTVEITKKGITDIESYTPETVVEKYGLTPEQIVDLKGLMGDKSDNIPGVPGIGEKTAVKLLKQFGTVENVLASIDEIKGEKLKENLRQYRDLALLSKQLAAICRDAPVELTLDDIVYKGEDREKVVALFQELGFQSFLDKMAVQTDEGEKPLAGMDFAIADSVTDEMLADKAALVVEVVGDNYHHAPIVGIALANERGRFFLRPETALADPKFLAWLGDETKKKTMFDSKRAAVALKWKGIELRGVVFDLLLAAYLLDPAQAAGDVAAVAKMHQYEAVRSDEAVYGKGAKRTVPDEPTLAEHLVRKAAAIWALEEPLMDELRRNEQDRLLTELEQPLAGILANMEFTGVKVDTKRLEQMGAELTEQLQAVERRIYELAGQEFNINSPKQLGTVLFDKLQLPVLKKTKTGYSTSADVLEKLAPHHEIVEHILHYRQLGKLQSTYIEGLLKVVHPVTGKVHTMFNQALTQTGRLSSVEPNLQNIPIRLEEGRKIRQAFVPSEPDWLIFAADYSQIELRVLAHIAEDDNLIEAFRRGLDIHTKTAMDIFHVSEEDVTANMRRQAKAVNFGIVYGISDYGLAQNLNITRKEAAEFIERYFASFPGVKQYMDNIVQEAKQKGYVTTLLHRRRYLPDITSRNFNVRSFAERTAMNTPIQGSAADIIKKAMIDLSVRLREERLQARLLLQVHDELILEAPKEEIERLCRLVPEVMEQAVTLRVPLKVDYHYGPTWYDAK
Briefly: Stepwise sequencing with TTP and E-dUTP, context metric (Example 8). The conditions noted are these: 0.05 fraction of dUTP*. The format is biochemical. From the text:
A microscope slide surface was modified with polyaminosilane to allow the attachment of 1 micron beads each containing one of three different oligonucleotide templates. To each template was bound an oligonucleotide primer and Bst DNA polymerase. Solutions of mixtures of labeled and unlabeled nucleotide, of one type at a time, were exposed to the surface, followed by a wash solution. The fluorescence of labeled beads was detected and quantitated. The fluorescence label was cleaved by treatment with tris(hydroxypropyl)phosphine (THP) after each step.
Context was measured for each experiment. Context is given by the context metric, C, which is defined as the (maximum-minimum signal)/average signal.

With `Cc1cn([C@H]2C[C@H](O)[C@@H](COP(=O)(O)OP(=O)(O)OP(=O)(O)O)O2)c(=O)[nH]c1=O` [TTP, thymidine triphosphate, reference compound], in assay [1] (mixture of C and A added after T or U analog), the “incorporation of dCTP and dATP after the dUTP analog” value is listed as “rapid”. For the same molecule, the “initial incorporation of dUTP analog” value in assay [1] (unquenching of fluorescein in hairpin oligo) is listed as “rapid”. Also, the “C (context metric)” value amounted to 0.86 in assay [2] (Oligonucleotide template 1), 0.73 in assay [2] (Oligonucleotide template 2) and 0.71 in assay [2] (Oligonucleotide template 3).
